For data set [1] the following is noted: rats, oral total alkaloid extracts from P. harmala 140 mg/kg; ref Zhang, 2013; Shi et al., 2014; cited from earlier work.
Details of data set [2]: method as in Zhang, 2013; Shi et al., 2014. Conditions: dogs, oral total alkaloid extracts from P. harmala 140 mg/kg; ref Zhang, 2013; Shi et al., 2014; cited from earlier work.
A further data set deals with MRP2. Nature of the data set: Western blot analysis of MRP2 protein expression in Caco-2 cells. The data set is classed as cell-based, human. On the procedure: The Caco-2 cells were seeded into 6-well plates at a density of 1 × 10^5 cells/mL and cultured for 24 h. […] Protein lysate was collected by centrifugation at 12,000 rpm at 4°C for 10 min, and the total protein content was determined using BCA protein assay kit. Proteins were then mixed with a quarter volume of loading buffer and heated at 100°C for 5 min. Approximately 20 μg of the total protein content was separated by SDS-PAGE through an 8% acrylamide gel and transferred to PVDF membranes. After washing with PBST, the membrane was blocked with 5% fat-free milk in PBST for 1 h at room temperature (RT) and then incubated with anti-MRP2 (1:500) and anti-GAPDH (1:5,000) overnight at 4°C. Afterwards, the membranes were rinsed with PBST and incubated with HRP-conjugated anti-rabbit (1:5,000) secondary antibody for 2 h at RT. After complete washing with PBST, the protein bands were visualized with ECL prime kit (GE Healthcare, NA, UK).
(In general: A western blot detects proteins with antibodies after separation by electrophoresis.)

A further data set relates to OATs. Nature of the data set: Bidirectional transport in MDCK cell monolayers with selective transporter inhibitors or substrates. In kind it is in vitro ADME, canine. The note with it: dog, with cimetidine 0.05 mM (50 μM), + Cimetidine 0.05 mM (OATs). On the procedure:
Caco-2, MDCK and MDCK-MRP2 cells were donated by Prof. Yan Xie and Yueming Ma from Shanghai University of Traditional Chinese Medicine. The cells were grown in culture dishes (Corning® Costar, Cambridge, MA, USA) using DMEM supplemented with 10% FBS, 1% NEAA and 1% penicillin-streptomycin solution. The cells were cultured in 5% CO2 and […] with 90% relative humidity at 37°C. The medium was replaced every other day during incubation. The cells were passaged every 3–4 days between 70 and 80% confluence at a 1:5 split ratio using 0.25% trypsin-EDTA. For the transport experiments, the cells from passages between 30 and 45 were seeded at 1 × 10^5 cells/cm^2 onto permeable polycarbonate inserts (0.45 μm pore size, seeding surface of 0.6 cm^2, Millipore, MA, USA) in 24-well plastic plates. The media in the culture plates were changed every other day for the first week after seeding and were replaced daily afterward. […] The cells were used for the transport experiments 21–28 (Caco-2) or 5–7 (MDCK and MDCK-MRP2) days after seeding, and only monolayers with a TEER-value above 420 Ω cm^2 were used during the studies.
The apical (AP) and basolateral (BL) sides are typical of polarized Caco-2, MDCK and MDCK-MRP2 epithelial cells. Before the experiments, the polarized cell monolayers were washed twice with warm HBSS solution and subsequently preincubated (37°C, 30 min). Afterward, HBSS solution on both sides of the cell monolayers was removed using a mini desktop vacuum pump. […] The final DMSO concentration in the HBSS or drug mixture was below 0.5%. The monolayers were incubated at 37°C, and 100 μL samples were taken at 30, 60, 90, and 120 min from the acceptor compartment and immediately replaced with the same volume of prewarmed fresh blank HBSS. TEER measurements for assessing the membrane integrity took place before and after the experiments.
The apparent permeability coefficients (Papp) and ER were calculated as Equations (2) and (3): […]
where dQ/dt is the steady-state flux, A is the membrane surface area, and C0 is the initial drug concentration in the donor compartment. PappBA is the Papp-value measured in BL to AP direction and PappAB is the Papp-value measured in AP to BL direction. It indicated the involvement of an active transport process when the ER-value is above 1.5 (Hubatsch et al., [2007]).

The subject of a further data set is Caco-2 cells. Nature of the data set: Cytotoxicity CCK-8 assay in Caco-2 cells. In kind it is cell-based, human. Conditions: Caco-2, CCK-8. On the procedure: (§1) In brief, the cells were seeded on 96-well plates at 1 × 10^5 cells/mL and cultured in 100 μL of culture medium at incubator for 24 h. […] After 12 h incubation, 10 μL of CCK-8 dye was added to each well, and cells were incubated for another 2 h. Cell viability (%) was calculated using the following Equation (1):
(§2) (1) Cell viability (%)=(ODsample−ODblank)/ (ODcontrol−ODblank) ×100%
(§3) ODsample refers to the absorbance of a well with treated cells and CCK-8. ODblank refers to the absorbance of a well with medium and CCK-8 but without cells. ODcontrol refers to the absorbance of a well with untreated cells and CCK-8. The absorbance at 450 nm was measured by a microplate reader (Biotek Instrument; Gene Co., Ltd., VT, USA), and the results are presented as mean ± SD from triplicate wells.
In general terms: Tetrazolium assays rely on reduction of a dye to a coloured formazan, in cell work by metabolically active cells.

The nature of data set [3]: Cytotoxicity CCK-8 assay in Caco-2 cells. In kind it is cell-based, human. Conditions: human, Caco-2 cells, 12 h incubation, read-out: Cell viability. As for the experimental part:
as §1, §2, §3

Like-named read-outs stand apart in the source and are kept apart here. Where only a bound is given, the exact number is not on record here.

Results on 2 compounds are retold here after publication PMC5566973 (Frontiers in Pharmacology, 2017).

For orientation: Papp A→B means how fast a substance crosses the layer from the apical side. The term viability denotes a per cent measure of how many cells are alive, often set against a control. The Papp B→A is the apparent permeability from the basolateral to the apical side of a cell layer.

As for `COc1ccc2c(c1)[nH]c1c(C)nccc12` [Harmine], the “F-value (absolute bioavailability)” value in data set [1] is reported as 4.96%; in data set [2] it was 5.33%. Also, the “effect on the expression of MRP2” value with MRP2 (48 h, 2 and 5 μM, compared with the control group) is listed as “slightly up-regulate”. In the data set with OATs, the Papp A→B at 120 min, 2 μM is 4.74 ± 0.13 ×10⁻⁶ cm/s. Also, the “concentration without toxicity or decreased cell viability” value in the data set on Caco-2 cells is reported as “up to 5 μM”. The “drug concentration producing notable toxicity” value with Caco-2 cells was over 25 µM. Further, in data set [3] (Caco-2, up to 5 μM), the viability at 12 h was over 90%.
Regarding `COc1ccc2c3c([nH]c2c1)C(C)=NCC3` [Harmaline], in data set [1], the “F-value (absolute bioavailability)” value is on record as 63.22%. Also, the “F-value (absolute bioavailability)” value in data set [2] is on record as 24.99%. Also, in the data set with MRP2 (48 h, 1, 2, and 5 μM), the “effect on the expression of MRP2” value is on record as “no effect”. In addition, in the data set on OATs, the Papp A→B at 120 min, 2 μM came to 19.2 ± 1.29 ×10⁻⁶ cm/s and the Papp B→A at 120 min, 2 μM came out at 19.2 ± 1.33 ×10⁻⁶ cm/s. In addition, in the data set on OATs (read-out: ER), the efflux ratio at 120 min, 2 μM came out at 1. Further, in the data set with Caco-2 cells, the “concentration without toxicity or decreased cell viability” value is “up to 25 μM” and the “drug concentration producing notable toxicity” value is given as “higher than 100 μM”. The viability at 12 h in data set [3] (Caco-2, up to 25 μM) was over 90%.
